Data as given in ChEMBL document CHEMBL3991601, “The target landscape of clinical kinase drugs” (Science, 2017).
The source made the active and inactive calls. Rule as the data show it, for most assays here: actives have a measured Kd and inactives only a lower limit.

Tests used:
[1] = target: RAC-gamma serine/threonine-protein kinase (Homo sapiens, UniProt Q9Y243)
[2] = target: Cyclin-dependent kinase 12 (Homo sapiens, UniProt Q9NYV4)
[3] = target: Casein kinase I isoform gamma-1 (Homo sapiens, UniProt Q9HCP0)
[4] = target: T1, ATP-dependent RNA helicase DDX1 (Homo sapiens, UniProt Q92499)
T1 sequence (Q92499 whole entry): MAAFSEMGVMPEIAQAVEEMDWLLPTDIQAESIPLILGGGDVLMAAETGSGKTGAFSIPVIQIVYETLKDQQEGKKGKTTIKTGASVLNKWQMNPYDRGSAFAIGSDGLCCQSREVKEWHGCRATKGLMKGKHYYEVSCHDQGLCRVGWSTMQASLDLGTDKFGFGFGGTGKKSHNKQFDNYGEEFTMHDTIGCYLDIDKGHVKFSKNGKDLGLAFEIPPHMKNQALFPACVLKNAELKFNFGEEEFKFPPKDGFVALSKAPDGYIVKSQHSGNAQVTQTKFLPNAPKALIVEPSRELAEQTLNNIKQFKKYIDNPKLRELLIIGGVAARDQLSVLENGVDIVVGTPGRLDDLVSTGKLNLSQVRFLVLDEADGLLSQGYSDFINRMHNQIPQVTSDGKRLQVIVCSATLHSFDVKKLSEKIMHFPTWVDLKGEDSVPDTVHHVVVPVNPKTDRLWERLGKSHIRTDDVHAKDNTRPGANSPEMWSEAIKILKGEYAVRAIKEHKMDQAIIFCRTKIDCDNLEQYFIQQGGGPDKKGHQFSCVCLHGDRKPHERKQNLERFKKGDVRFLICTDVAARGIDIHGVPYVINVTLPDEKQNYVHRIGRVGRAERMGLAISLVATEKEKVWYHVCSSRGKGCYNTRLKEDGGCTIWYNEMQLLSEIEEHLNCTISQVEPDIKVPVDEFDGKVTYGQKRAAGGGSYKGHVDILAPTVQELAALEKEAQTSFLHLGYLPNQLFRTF

[5] = target: T2, Cyclin-G-associated kinase (Homo sapiens, UniProt O14976)
T2 sequence (O14976 whole entry): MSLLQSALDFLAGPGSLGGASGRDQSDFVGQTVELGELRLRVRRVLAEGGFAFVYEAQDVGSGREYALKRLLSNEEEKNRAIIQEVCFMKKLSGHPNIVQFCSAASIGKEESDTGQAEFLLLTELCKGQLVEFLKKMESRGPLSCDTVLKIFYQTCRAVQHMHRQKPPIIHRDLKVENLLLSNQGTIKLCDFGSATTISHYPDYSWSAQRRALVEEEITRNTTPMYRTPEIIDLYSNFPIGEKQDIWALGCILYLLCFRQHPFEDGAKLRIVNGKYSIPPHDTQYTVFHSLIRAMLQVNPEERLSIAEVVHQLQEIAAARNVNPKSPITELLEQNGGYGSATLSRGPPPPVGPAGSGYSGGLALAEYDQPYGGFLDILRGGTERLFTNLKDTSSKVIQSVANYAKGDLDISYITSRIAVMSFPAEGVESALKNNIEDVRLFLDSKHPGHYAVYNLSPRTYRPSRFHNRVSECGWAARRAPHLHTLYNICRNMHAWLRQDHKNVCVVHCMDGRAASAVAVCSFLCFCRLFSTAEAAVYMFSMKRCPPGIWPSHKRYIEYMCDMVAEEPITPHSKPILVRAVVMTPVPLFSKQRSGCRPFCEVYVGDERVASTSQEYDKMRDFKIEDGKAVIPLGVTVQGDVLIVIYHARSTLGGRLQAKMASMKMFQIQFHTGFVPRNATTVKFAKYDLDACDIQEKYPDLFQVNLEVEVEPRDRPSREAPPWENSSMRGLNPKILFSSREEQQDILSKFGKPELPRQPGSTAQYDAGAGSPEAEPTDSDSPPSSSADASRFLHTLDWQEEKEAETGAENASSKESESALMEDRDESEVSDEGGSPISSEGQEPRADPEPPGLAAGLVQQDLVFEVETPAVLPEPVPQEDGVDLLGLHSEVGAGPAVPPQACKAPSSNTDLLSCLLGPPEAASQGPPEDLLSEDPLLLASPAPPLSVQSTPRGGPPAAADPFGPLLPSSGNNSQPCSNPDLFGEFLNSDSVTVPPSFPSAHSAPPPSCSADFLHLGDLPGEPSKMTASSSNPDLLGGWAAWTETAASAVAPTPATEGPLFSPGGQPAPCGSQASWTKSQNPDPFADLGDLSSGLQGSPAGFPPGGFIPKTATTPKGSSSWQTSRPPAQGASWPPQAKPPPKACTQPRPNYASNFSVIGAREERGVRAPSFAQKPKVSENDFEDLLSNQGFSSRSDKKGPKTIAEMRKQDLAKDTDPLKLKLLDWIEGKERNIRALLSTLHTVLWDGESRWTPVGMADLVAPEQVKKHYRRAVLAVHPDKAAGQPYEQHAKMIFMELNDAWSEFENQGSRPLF

[6] = target: Tyrosine-protein kinase HCK (Homo sapiens, UniProt P08631)
[7] = target: Maternal embryonic leucine zipper kinase (Homo sapiens, UniProt Q14680)
[8] = target: NADH dehydrogenase [ubiquinone] 1 alpha subcomplex subunit 13 (Homo sapiens, UniProt Q9P0J0)
[9] = target: Ribosomal protein S6 kinase alpha-6 (Homo sapiens, UniProt Q9UK32)
[10] = target: Tyrosine-protein kinase SYK (Homo sapiens, UniProt P43405)
[11] = target: TRAF2 and NCK-interacting protein kinase (Homo sapiens, UniProt Q9UKE5)
Also: in the data inactive means no Kd found up to 30 µM.

TRAF2 and NCK-interacting protein kinase, sequence (Q9UKE5 whole entry): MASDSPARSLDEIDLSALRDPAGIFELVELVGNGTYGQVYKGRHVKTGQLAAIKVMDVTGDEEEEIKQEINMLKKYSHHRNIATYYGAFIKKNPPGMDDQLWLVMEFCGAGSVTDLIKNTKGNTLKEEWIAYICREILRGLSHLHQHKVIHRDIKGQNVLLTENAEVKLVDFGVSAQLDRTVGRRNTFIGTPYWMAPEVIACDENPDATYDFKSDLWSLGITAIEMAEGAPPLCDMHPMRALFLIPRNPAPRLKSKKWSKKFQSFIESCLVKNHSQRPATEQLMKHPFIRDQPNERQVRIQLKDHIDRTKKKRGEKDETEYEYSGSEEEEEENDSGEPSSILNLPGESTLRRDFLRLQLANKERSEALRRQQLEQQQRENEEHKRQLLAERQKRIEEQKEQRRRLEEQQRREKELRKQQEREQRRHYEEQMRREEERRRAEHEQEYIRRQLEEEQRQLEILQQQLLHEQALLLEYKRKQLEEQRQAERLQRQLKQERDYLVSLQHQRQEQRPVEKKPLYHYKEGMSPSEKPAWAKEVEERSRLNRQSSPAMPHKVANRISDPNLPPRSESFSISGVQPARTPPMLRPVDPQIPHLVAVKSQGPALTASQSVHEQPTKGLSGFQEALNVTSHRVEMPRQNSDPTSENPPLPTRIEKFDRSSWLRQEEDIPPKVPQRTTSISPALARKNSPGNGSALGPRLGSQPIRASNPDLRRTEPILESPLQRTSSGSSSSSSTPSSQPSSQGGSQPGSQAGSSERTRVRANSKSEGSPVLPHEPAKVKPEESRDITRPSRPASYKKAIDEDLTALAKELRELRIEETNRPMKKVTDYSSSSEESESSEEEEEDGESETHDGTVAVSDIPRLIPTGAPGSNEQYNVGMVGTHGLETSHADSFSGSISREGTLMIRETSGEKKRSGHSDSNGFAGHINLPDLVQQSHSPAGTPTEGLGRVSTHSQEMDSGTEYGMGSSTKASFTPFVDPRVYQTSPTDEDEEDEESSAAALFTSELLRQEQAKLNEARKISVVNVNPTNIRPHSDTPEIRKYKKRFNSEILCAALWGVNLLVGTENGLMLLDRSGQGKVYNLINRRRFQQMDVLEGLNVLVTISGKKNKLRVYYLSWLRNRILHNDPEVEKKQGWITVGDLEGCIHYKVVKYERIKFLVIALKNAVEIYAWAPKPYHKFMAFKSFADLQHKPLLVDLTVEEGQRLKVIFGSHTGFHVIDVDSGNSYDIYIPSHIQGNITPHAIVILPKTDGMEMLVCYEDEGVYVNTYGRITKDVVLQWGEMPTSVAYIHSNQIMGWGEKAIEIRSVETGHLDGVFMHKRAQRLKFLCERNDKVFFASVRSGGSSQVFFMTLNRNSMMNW
Tyrosine-protein kinase HCK, sequence (P08631 whole entry): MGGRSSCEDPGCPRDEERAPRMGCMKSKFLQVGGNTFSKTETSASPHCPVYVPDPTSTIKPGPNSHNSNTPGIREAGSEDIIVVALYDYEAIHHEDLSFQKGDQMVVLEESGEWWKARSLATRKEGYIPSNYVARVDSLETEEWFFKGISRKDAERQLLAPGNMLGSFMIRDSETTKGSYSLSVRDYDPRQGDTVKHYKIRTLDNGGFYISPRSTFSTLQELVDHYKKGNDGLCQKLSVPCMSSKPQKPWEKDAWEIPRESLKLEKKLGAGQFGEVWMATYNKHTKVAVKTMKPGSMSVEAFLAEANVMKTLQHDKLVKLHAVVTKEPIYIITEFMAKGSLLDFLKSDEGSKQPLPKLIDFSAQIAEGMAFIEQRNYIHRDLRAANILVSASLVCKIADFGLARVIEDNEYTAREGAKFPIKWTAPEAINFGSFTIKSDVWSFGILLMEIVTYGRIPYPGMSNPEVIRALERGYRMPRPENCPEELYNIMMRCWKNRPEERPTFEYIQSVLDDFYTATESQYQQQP
Maternal embryonic leucine zipper kinase, sequence (Q14680 whole entry): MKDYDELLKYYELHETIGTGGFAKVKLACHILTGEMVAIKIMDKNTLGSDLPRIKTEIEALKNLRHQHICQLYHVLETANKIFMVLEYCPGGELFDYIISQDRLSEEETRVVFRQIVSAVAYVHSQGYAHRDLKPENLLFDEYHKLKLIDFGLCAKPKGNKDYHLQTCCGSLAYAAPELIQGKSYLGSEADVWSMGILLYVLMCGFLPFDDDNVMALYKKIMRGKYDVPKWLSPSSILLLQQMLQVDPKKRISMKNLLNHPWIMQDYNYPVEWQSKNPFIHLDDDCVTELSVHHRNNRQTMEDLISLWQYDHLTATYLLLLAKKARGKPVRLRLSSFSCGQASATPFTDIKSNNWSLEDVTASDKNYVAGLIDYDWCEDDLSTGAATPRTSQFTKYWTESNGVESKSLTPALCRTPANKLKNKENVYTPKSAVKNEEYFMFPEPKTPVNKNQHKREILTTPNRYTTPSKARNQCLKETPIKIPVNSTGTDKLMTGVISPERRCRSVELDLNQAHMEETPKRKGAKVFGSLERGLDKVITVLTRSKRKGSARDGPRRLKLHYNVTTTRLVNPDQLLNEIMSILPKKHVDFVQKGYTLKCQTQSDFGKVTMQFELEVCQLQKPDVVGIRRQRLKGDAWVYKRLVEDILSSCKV
RAC-gamma serine/threonine-protein kinase, sequence (Q9Y243 whole entry): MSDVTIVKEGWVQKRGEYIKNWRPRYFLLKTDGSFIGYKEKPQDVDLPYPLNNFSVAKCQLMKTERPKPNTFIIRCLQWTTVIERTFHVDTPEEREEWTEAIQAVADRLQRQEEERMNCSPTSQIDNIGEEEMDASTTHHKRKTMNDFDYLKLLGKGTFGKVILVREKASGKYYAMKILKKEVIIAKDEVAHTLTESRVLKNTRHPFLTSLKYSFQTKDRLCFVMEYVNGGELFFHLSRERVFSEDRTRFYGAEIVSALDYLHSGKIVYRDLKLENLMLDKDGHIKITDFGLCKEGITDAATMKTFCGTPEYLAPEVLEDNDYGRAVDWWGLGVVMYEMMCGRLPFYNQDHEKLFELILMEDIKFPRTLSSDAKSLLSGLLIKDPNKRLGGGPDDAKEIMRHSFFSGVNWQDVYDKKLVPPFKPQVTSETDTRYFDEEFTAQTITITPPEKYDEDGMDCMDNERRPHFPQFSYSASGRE
Ribosomal protein S6 kinase alpha-6, sequence (Q9UK32 whole entry): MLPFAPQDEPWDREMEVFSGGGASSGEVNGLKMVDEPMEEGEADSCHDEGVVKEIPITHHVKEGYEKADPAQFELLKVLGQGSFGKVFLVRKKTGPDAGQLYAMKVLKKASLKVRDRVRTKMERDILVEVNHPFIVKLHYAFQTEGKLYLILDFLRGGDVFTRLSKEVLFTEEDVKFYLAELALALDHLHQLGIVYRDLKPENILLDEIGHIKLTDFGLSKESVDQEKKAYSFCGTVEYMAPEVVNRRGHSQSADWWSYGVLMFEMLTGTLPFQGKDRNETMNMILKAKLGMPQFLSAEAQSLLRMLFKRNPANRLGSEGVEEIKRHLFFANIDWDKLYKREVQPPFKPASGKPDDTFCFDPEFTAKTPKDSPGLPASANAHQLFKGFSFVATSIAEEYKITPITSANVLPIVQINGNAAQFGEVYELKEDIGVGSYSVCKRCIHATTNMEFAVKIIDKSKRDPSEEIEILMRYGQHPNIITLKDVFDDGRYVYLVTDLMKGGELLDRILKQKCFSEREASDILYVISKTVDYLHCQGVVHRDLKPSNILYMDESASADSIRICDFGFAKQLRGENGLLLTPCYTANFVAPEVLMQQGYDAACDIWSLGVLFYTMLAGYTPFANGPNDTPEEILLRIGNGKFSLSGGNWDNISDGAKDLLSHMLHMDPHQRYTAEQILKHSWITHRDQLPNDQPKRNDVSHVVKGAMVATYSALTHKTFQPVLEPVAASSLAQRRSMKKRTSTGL
NADH dehydrogenase [ubiquinone] 1 alpha subcomplex subunit 13, sequence (Q9P0J0 whole entry, one chain of several): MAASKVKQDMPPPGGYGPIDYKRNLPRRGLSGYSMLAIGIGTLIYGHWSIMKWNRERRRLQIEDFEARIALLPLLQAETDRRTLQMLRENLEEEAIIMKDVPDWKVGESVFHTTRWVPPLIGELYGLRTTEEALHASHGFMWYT
Casein kinase I isoform gamma-1, sequence (Q9HCP0 whole entry, canonical isoform): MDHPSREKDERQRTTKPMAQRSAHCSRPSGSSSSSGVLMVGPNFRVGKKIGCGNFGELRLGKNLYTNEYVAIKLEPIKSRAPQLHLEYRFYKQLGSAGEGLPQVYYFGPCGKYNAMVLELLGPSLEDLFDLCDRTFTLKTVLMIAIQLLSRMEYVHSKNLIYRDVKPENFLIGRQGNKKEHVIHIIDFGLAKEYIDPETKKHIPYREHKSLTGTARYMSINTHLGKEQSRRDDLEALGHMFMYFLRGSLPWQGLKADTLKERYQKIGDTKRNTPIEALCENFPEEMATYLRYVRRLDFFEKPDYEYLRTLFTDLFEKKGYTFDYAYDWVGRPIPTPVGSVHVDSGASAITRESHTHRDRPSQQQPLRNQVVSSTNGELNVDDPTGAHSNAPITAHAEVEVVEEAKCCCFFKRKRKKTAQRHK

SMILES: FC(F)(F)c1ccc(CNc2ccc(Cc3c[nH]c4ncc(Cl)cc34)cn2)cn1 [PEXIDARTINIB]
- Kd [1]: > 30 µM (inactive)
- Kd [2]: > 30 µM (inactive)
- Kd [3]: > 30 µM (inactive)
- Kd [4]: > 30 µM (inactive)
- Kd [5]: > 30 µM (inactive)
- Kd [6]: > 30 µM (inactive)
- Kd [7]: > 30 µM (inactive)
- Kd [8]: > 30 µM (inactive)
- Kd [9]: > 30 µM (inactive)
- Kd [10]: > 30 µM (inactive)
- Kd [11]: > 30 µM (inactive)

SMILES: O=C(NC[C@H](O)CO)c1ccncc1Nc1ccc(I)cc1F [PIMASERTIB]
- Kd [1]: > 30 µM (inactive)
- Kd [2]: > 30 µM (inactive)
- Kd [3]: > 30 µM (inactive)
- Kd [4]: > 30 µM (inactive)
- Kd [5]: > 30 µM (inactive)
- Kd [6]: > 30 µM (inactive)
- Kd [7]: > 30 µM (inactive)
- Kd [8]: > 30 µM (inactive)
- Kd [9]: > 30 µM (inactive)
- Kd [10]: > 30 µM (inactive)
- Kd [11]: > 30 µM (inactive)

SMILES: COc1cc(F)c(F)c(Nc2ccc(I)cc2F)c1NS(=O)(=O)C1(C[C@H](O)CO)CC1 [REFAMETINIB]
- Kd [1]: > 30 µM (inactive)
- Kd [2]: > 30 µM (inactive)
- Kd [3]: > 30 µM (inactive)
- Kd [4]: > 30 µM (inactive)
- Kd [5]: > 30 µM (inactive)
- Kd [6]: > 30 µM (inactive)
- Kd [7]: > 30 µM (inactive)
- Kd [8]: > 30 µM (inactive)
- Kd [9]: > 30 µM (inactive)
- Kd [10]: > 30 µM (inactive)
- Kd [11]: > 30 µM (inactive)

SMILES: COCCN1CCN(Cc2ccc(-c3n[nH]c4c3C(=O)c3c(NC(=O)NN5CCOCC5)cccc3-4)cc2)CC1 [RGB-286638]
- Kd [1]: > 30 µM (inactive)
- Kd [2]: 0.947 µM (active)
- Kd [3]: 3.18 µM (active)
- Kd [4]: > 30 µM (inactive)
- Kd [5]: 0.004 µM (active)
- Kd [6]: > 30 µM (inactive)
- Kd [7]: 1.46 µM (active)
- Kd [8]: > 30 µM (inactive)
- Kd [9]: > 30 µM (inactive)
- Kd [10]: > 30 µM (inactive)
- Kd [11]: > 30 µM (inactive)

SMILES: C=CC(=O)Nc1cccc(Nc2nc(Nc3ccc(N4CCN(C(C)=O)CC4)cc3OC)ncc2C(F)(F)F)c1 [ROCILETINIB]
- Kd [1]: > 30 µM (inactive)
- Kd [2]: > 30 µM (inactive)
- Kd [3]: > 30 µM (inactive)
- Kd [4]: > 30 µM (inactive)
- Kd [5]: 0.45 µM (active)
- Kd [6]: > 30 µM (inactive)
- Kd [7]: > 30 µM (inactive)
- Kd [8]: > 30 µM (inactive)
- Kd [9]: > 30 µM (inactive)
- Kd [10]: > 30 µM (inactive)
- Kd [11]: > 30 µM (inactive)

SMILES: CC(C)(O)CC(=O)NCCn1ccc2ncnc(Nc3ccc(Oc4cccc(C(F)(F)F)c4)c(Cl)c3)c21 [TAK-285]
- Kd [1]: > 30 µM (inactive)
- Kd [2]: > 30 µM (inactive)
- Kd [3]: > 30 µM (inactive)
- Kd [4]: > 30 µM (inactive)
- Kd [5]: > 30 µM (inactive)
- Kd [6]: > 30 µM (inactive)
- Kd [7]: > 30 µM (inactive)
- Kd [8]: > 30 µM (inactive)
- Kd [9]: > 30 µM (inactive)
- Kd [10]: > 30 µM (inactive)
- Kd [11]: > 30 µM (inactive)

SMILES: O[C@H]1CC[C@H](Nc2ncc3nc(Nc4c(F)cc(F)cc4F)n([C@H]4CCOC4)c3n2)CC1 [TANZISERTIB]
- Kd [1]: > 30 µM (inactive)
- Kd [2]: > 30 µM (inactive)
- Kd [3]: > 30 µM (inactive)
- Kd [4]: > 30 µM (inactive)
- Kd [5]: 0.156 µM (active)
- Kd [6]: > 30 µM (inactive)
- Kd [7]: > 30 µM (inactive)
- Kd [8]: > 30 µM (inactive)
- Kd [9]: > 30 µM (inactive)
- Kd [10]: > 30 µM (inactive)
- Kd [11]: > 30 µM (inactive)

SMILES: Cc1cc(-c2cc(OC(=O)c3ccccc3)ccc2Cl)cc2nnc(Nc3ccc(OCCN4CCCC4)cc3)nc12 [TG100-801]
- Kd [1]: > 30 µM (inactive)
- Kd [2]: > 30 µM (inactive)
- Kd [3]: > 30 µM (inactive)
- Kd [4]: > 30 µM (inactive)
- Kd [5]: 0.824 µM (active)
- Kd [6]: > 30 µM (inactive)
- Kd [7]: > 30 µM (inactive)
- Kd [8]: > 30 µM (inactive)
- Kd [9]: > 30 µM (inactive)
- Kd [10]: > 30 µM (inactive)
- Kd [11]: > 30 µM (inactive)

SMILES: C[C@@H]1COC(Nc2ccc3ncnc(Nc4ccc(OCc5nccs5)c(Cl)c4)c3c2)=N1 [VARLITINIB]
- Kd [1]: > 30 µM (inactive)
- Kd [2]: > 30 µM (inactive)
- Kd [3]: > 30 µM (inactive)
- Kd [4]: > 30 µM (inactive)
- Kd [5]: > 30 µM (inactive)
- Kd [6]: > 30 µM (inactive)
- Kd [7]: > 30 µM (inactive)
- Kd [8]: > 30 µM (inactive)
- Kd [9]: > 30 µM (inactive)
- Kd [10]: > 30 µM (inactive)
- Kd [11]: > 30 µM (inactive)

SMILES: CNC(=O)c1cccc(-c2ccc3c(N4CCOC[C@@H]4C)nc(N4CCOC[C@@H]4C)nc3n2)c1 [VISTUSERTIB]
- Kd [1]: > 30 µM (inactive)
- Kd [2]: > 30 µM (inactive)
- Kd [3]: > 30 µM (inactive)
- Kd [4]: > 30 µM (inactive)
- Kd [5]: > 30 µM (inactive)
- Kd [6]: > 30 µM (inactive)
- Kd [7]: > 30 µM (inactive)
- Kd [8]: > 30 µM (inactive)
- Kd [9]: > 30 µM (inactive)
- Kd [10]: > 30 µM (inactive)
- Kd [11]: > 30 µM (inactive)

SMILES: NC(=O)c1ccc(N(C(N)=O)c2c(F)cccc2F)nc1-c1ccc(F)cc1F [VX-702]
- Kd [1]: > 30 µM (inactive)
- Kd [2]: > 30 µM (inactive)
- Kd [3]: > 30 µM (inactive)
- Kd [4]: > 30 µM (inactive)
- Kd [5]: > 30 µM (inactive)
- Kd [6]: > 30 µM (inactive)
- Kd [7]: > 30 µM (inactive)
- Kd [8]: > 30 µM (inactive)
- Kd [9]: > 30 µM (inactive)
- Kd [10]: > 30 µM (inactive)
- Kd [11]: > 30 µM (inactive)

SMILES: COc1cc2ncnc(Nc3ccc(O)cc3)c2cc1OC [WHI-P131]
- Kd [1]: > 30 µM (inactive)
- Kd [2]: > 30 µM (inactive)
- Kd [3]: > 30 µM (inactive)
- Kd [4]: > 30 µM (inactive)
- Kd [5]: 28.7 µM (active)
- Kd [6]: > 30 µM (inactive)
- Kd [7]: > 30 µM (inactive)
- Kd [8]: > 30 µM (inactive)
- Kd [9]: 5.9 µM (active)
- Kd [10]: > 30 µM (inactive)
- Kd [11]: > 30 µM (inactive)
